Laboratory results reported in ChEMBL document CHEMBL3885861, “Open TG-GATES”.

Species on record: Rattus norvegicus
Assay: Open TG-GATES - Regimen: Single
Assay type: toxicity, organism-based, Sprague-Dawley
Design: regimen Single, gender Male, age 6 weeks
Conditions: in vivo, po, route gavage; for TP / gamma-GTP / ALP / AST / CRE / DBIL / IP / K / LDH / Na / RALB / TBIL / TC / TG / ALT: tissue Plasma; for Bas / Eos / Fbg / Hb / Lym / MCH / MCHC / MCV / Mono / Neu / PT / RBC / Ret / APTT / WBC / Ht: tissue Blood; for KIDNEY_L / KIDNEY_R / KIDNEY_TOTAL: tissue Kidney
[1] = 30 mg/kg, 3 h, dose level Middle
[2] = 30 mg/kg, 6 h, dose level Middle
[3] = 30 mg/kg, 9 h, dose level Middle
[4] = 30 mg/kg, 24 h, dose level Middle
[5] = 100 mg/kg, 3 h, dose level High
[6] = 100 mg/kg, 6 h, dose level High
[7] = 100 mg/kg, 9 h, dose level High
[8] = 100 mg/kg, 24 h, dose level High

Cc1cnc(NC(=O)C2=C(O)c3ccccc3S(=O)(=O)N2C)s1 [MELOXICAM]
TP (10 mg/kg, 24 h, dose level Low): 5.4 g/dL | gamma-GTP (10 mg/kg, 24 h, dose level Low): 1 IU/L | TERMINAL_BW [1]: 226 g | Bas [1]: 1% | Eos [1]: 0.8% | Fbg [1]: 212 mg/dL | Hb [1]: 13.3 g/dL | Lym [1]: 79.6% | MCH [1]: 21 pg | MCHC [1]: 33.5% | MCV [1]: 62.7 fL | Mono [1]: 2.4% | Neu [1]: 16.4% | PT [1]: 12 s | RBC [1]: 636.4 x10_4/ul | Ret [1]: 7% | KIDNEY_L [1]: 1 g | KIDNEY_R [1]: 1 g | KIDNEY_TOTAL [1]: 2.1 g | ALP [1]: 811 IU/L | AST [1]: 65.6 IU/L | CRE [1]: 0.4 mg/dL | DBIL [1]: 0.07 mg/dL | IP [1]: 8.4 mg/dL | K [1]: 4.1 meq/L | LDH [1]: 177.8 IU/L | Na [1]: 140.6 meq/L | RALB [1]: 3.2 g/dL | TBIL [1]: 0.1 mg/dL | TC [1]: 66 mg/dL | TG [1]: 66 mg/dL | TP [1]: 5.3 g/dL | gamma-GTP [1]: 0.8 IU/L | TERMINAL_BW [2]: 222.4 g | Bas [2]: 0.6% | Eos [2]: 0.8% | Fbg [2]: 221.6 mg/dL | Lym [2]: 73.6% | MCH [2]: 21.8 pg | MCHC [2]: 33.9% | MCV [2]: 64.3 fL | Mono [2]: 3.4% | Neu [2]: 21.4% | RBC [2]: 632.8 x10_4/ul | Ret [2]: 7.2% | KIDNEY_L [2]: 1 g | KIDNEY_R [2]: 0.9 g | KIDNEY_TOTAL [2]: 1.9 g | ALP [2]: 775.2 IU/L | ALT [2]: 36.2 IU/L | AST [2]: 68.6 IU/L | CRE [2]: 0.4 mg/dL | DBIL [2]: 0.062 mg/dL | IP [2]: 9.3 mg/dL | K [2]: 3.8 meq/L | LDH [2]: 163.2 IU/L | Na [2]: 141.2 meq/L | RALB [2]: 3.4 g/dL | TBIL [2]: 0.1 mg/dL | TC [2]: 70.4 mg/dL | TG [2]: 61.6 mg/dL | TP [2]: 5.5 g/dL | gamma-GTP [2]: 1 IU/L | TERMINAL_BW [3]: 222 g | APTT [3]: 17.1 s | Bas [3]: 0.4% | Eos [3]: 0.8% | Fbg [3]: 235 mg/dL | Hb [3]: 13.3 g/dL | Lym [3]: 72% | MCH [3]: 21.8 pg | MCHC [3]: 34.2% | MCV [3]: 63.8 fL | Mono [3]: 3.8% | Neu [3]: 22.2% | PT [3]: 12.5 s | RBC [3]: 612.6 x10_4/ul | Ret [3]: 7% | WBC [3]: 110.9 x10_2/uL | KIDNEY_L [3]: 1 g | KIDNEY_R [3]: 1 g | KIDNEY_TOTAL [3]: 2 g | ALP [3]: 861.8 IU/L | ALT [3]: 34 IU/L | AST [3]: 62.8 IU/L | CRE [3]: 0.4 mg/dL | DBIL [3]: 0.06 mg/dL | IP [3]: 9.6 mg/dL | K [3]: 4.1 meq/L | LDH [3]: 170.2 IU/L | Na [3]: 141.8 meq/L | RALB [3]: 3.2 g/dL | TBIL [3]: 0.1 mg/dL | TC [3]: 64 mg/dL | TG [3]: 44.4 mg/dL | TP [3]: 5.3 g/dL | gamma-GTP [3]: 1 IU/L | TERMINAL_BW [4]: 240.1 g | Bas [4]: 0.6% | Eos [4]: 0.8% | Fbg [4]: 243.4 mg/dL | Lym [4]: 68% | MCH [4]: 21.8 pg | MCHC [4]: 33.7% | MCV [4]: 64.6 fL | Mono [4]: 3.8% | Neu [4]: 26.4% | PT [4]: 11.6 s | RBC [4]: 609 x10_4/ul | Ret [4]: 6.8% | WBC [4]: 132.5 x10_2/uL | KIDNEY_L [4]: 1.1 g | KIDNEY_R [4]: 1.1 g | KIDNEY_TOTAL [4]: 2.1 g | ALT [4]: 38.4 IU/L | AST [4]: 69.6 IU/L | CRE [4]: 0.4 mg/dL | DBIL [4]: 0.098 mg/dL | IP [4]: 7.8 mg/dL | K [4]: 3.9 meq/L | LDH [4]: 207 IU/L | Na [4]: 142.8 meq/L | RALB [4]: 3.3 g/dL | TBIL [4]: 0.2 mg/dL | TC [4]: 72.2 mg/dL | TG [4]: 108 mg/dL | TP [4]: 5.4 g/dL | gamma-GTP [4]: 1 IU/L | TERMINAL_BW [5]: 226.7 g | Bas [5]: 1% | Eos [5]: 1.4% | Fbg [5]: 222.4 mg/dL | Lym [5]: 75.6% | MCH [5]: 21.7 pg | MCHC [5]: 34% | MCV [5]: 63.9 fL | Mono [5]: 3.6% | Neu [5]: 18.6% | PT [5]: 11.8 s | RBC [5]: 624.4 x10_4/ul | Ret [5]: 7.1% | WBC [5]: 99 x10_2/uL | KIDNEY_L [5]: 1 g | KIDNEY_R [5]: 1 g | KIDNEY_TOTAL [5]: 2 g | ALP [5]: 883 IU/L | ALT [5]: 37.2 IU/L | AST [5]: 68.2 IU/L | CRE [5]: 0.4 mg/dL | DBIL [5]: 0.078 mg/dL | IP [5]: 8.9 mg/dL | K [5]: 4 meq/L | LDH [5]: 187.4 IU/L | Na [5]: 140.6 meq/L | RALB [5]: 3.4 g/dL | TBIL [5]: 0.1 mg/dL | TC [5]: 74.2 mg/dL | TG [5]: 74.4 mg/dL | TP [5]: 5.4 g/dL | gamma-GTP [5]: 0.8 IU/L | TERMINAL_BW [6]: 223.6 g | Bas [6]: 0.4% | Eos [6]: 1% | Fbg [6]: 211.6 mg/dL | Hb [6]: 13.3 g/dL | Lym [6]: 73.4% | MCH [6]: 21.1 pg | MCHC [6]: 34% | MCV [6]: 61.9 fL | Mono [6]: 3.2% | Neu [6]: 22.4% | PT [6]: 12.1 s | RBC [6]: 631.4 x10_4/ul | Ret [6]: 6.7% | WBC [6]: 88.1 x10_2/uL | KIDNEY_L [6]: 1 g | KIDNEY_R [6]: 1 g | KIDNEY_TOTAL [6]: 2 g | ALP [6]: 723.4 IU/L | ALT [6]: 37.4 IU/L | AST [6]: 68 IU/L | CRE [6]: 0.3 mg/dL | DBIL [6]: 0.068 mg/dL | IP [6]: 9.5 mg/dL | K [6]: 4.1 meq/L | LDH [6]: 160.4 IU/L | Na [6]: 140.4 meq/L | RALB [6]: 3.3 g/dL | TBIL [6]: 0.1 mg/dL | TC [6]: 67.6 mg/dL | TG [6]: 43 mg/dL | TP [6]: 5.3 g/dL | gamma-GTP [6]: 1 IU/L | TERMINAL_BW [7]: 223.1 g | APTT [7]: 17.8 s | Bas [7]: 0.4% | Eos [7]: 1% | Fbg [7]: 222.6 mg/dL | Hb [7]: 13.3 g/dL | Ht [7]: 38.4% | Lym [7]: 65.6% | MCH [7]: 21.9 pg | MCHC [7]: 34.5% | MCV [7]: 63.6 fL | Mono [7]: 4% | Neu [7]: 28.8% | RBC [7]: 605 x10_4/ul | Ret [7]: 7.1% | KIDNEY_L [7]: 1 g | KIDNEY_R [7]: 1 g | KIDNEY_TOTAL [7]: 2 g | ALP [7]: 759 IU/L | ALT [7]: 27.4 IU/L | AST [7]: 61 IU/L | CRE [7]: 0.4 mg/dL | DBIL [7]: 0.06 mg/dL | IP [7]: 9.6 mg/dL | K [7]: 4.3 meq/L | LDH [7]: 166 IU/L | Na [7]: 141.4 meq/L | RALB [7]: 3.2 g/dL | TBIL [7]: 0.1 mg/dL | TC [7]: 62 mg/dL | TG [7]: 23.2 mg/dL | TP [7]: 5.3 g/dL | gamma-GTP [7]: 1 IU/L | TERMINAL_BW [8]: 227.5 g | Bas [8]: 0.2% | Eos [8]: 0.8% | Fbg [8]: 300.8 mg/dL | Hb [8]: 9.5 g/dL | Ht [8]: 28.5% | Lym [8]: 67.4% | MCH [8]: 20.9 pg | MCHC [8]: 33.2% | MCV [8]: 62.8 fL | Mono [8]: 2.8% | PT [8]: 11.8 s | RBC [8]: 453.8 x10_4/ul | Ret [8]: 8.4% | KIDNEY_L [8]: 1.1 g | KIDNEY_R [8]: 1.1 g | KIDNEY_TOTAL [8]: 2.1 g | ALP [8]: 504.8 IU/L | ALT [8]: 26.2 IU/L | AST [8]: 51.8 IU/L | CRE [8]: 0.4 mg/dL | DBIL [8]: 0.056 mg/dL | IP [8]: 9.8 mg/dL | K [8]: 4.3 meq/L | LDH [8]: 159.4 IU/L | Na [8]: 141.2 meq/L | RALB [8]: 2.2 g/dL | TBIL [8]: 0.1 mg/dL | TC [8]: 58.6 mg/dL | TG [8]: 69.2 mg/dL | TP [8]: 3.9 g/dL | gamma-GTP [8]: 1 IU/L
